Laboratory results taken from PMC9068900, “Pharmacology of Kappa Opioid Receptors: Novel Assays and Ligands” (Frontiers in Pharmacology, 2022).
Values joined by “and” are separate entries in the source; they are usually repeats but may differ in a detail not shown here. Equal entries are not always repeated. Where two headings read alike, the source gives them in different places. Non-standard residues stand in square brackets, D forms with d. Residues, ends and D or L forms follow the SMILES beside them. Dmt = Cc1cc(O)cc(C)c1C[C@H](N)C(=O)O; Tic = O=C(O)[C@@H]1Cc2ccccc2CN1

Columns and labels:
kappa opioid receptor [1] = settings: ref Simonin et al., 1995; cited from earlier work
kappa opioid receptor [2] = system: kappa opioid receptor; set-up: method as in Zhu et al., 1997; Birch et al., 1987; settings: ref Zhu et al., 1997; Birch et al., 1987; cited from earlier work
[3] = biological target: T1, human kappa opioid receptor (Homo sapiens, UniProt P41145); assay: Calcium mobilization in CHO cells co-expressing the kappa receptor and Gαqi5; type: cell-based; set-up: expressed in transfected cells
[4] = biological target: T1, human kappa opioid receptor; assay: Dynamic mass redistribution (DMR) label-free assay in CHO cells; type: cell-based; set-up: expressed in transfected cells
Experimental: DMR experiments were conducted as previously described ([Malfacini et al., 2018]). Chinese Hamster Ovary (CHO) cells stably expressing the human kappa receptor were kindly provided by L Toll (Torrey Pines Institute for Molecular Studies, Port St. Lucie, United States). Cells were cultured in Dulbecco’s Modified Eagle Medium: Nutrient Mixture F-12 (DMEM/F12) supplemented with 10% (v/v) Fetal Calf Serum (FCS), 100 U/ml penicillin, 100 μg/ml streptomycin, 2 mM L-glutamine, 15 mM HEPES. The medium was supplemented with 400 μg/ml G418 to maintain expression. Cells were seeded at a density of 45,000 cells/well in 120 μL into fibronectin-coated EnspireTM-LC 96-wells plates and cultured for 20 h to form a confluent monolayer. On the day of the experiment, cells were washed twice and maintained with assay buffer: HBSS with 20 mM HEPES, 0.01% BSA fraction V; for 90 min before the experiment. DMR was monitored in real-time with a temporal resolution of 44 s throughout the assay. Experiments were performed at 37°C, using an EnSight Multimode Plate Reader (PerkinElmer). A 5 min baseline was first established, followed by adding compounds manually in a volume of 40 μL and recording compound-triggered DMR signal for 60 min. In antagonism experiments, ligands tested as antagonists were added 30 min before agonist administration. Maximum picometers (pm) modification (peak) were used to determine agonist response after baseline normalization.
The pharmacological terminology is consistent with the International Union of Basic and Clinical Pharmacology (IUPHAR) recommendations ([Neubig et al., 2003]). Concentration-response curves to agonists were fitted to the four-parameter logistic nonlinear regression model as follows: Effect=Basal+ Emax−Basal/1+10^ (LogEC50−Log[ligand]) × HillSlope
If unsurmountable antagonist behavior was detected, the pKB value was derived as follows: a double-reciprocal plot of equi-effective concentrations of agonist (A) in the absence (1/A) and presence (1/A’) of the antagonist (B) was constructed and pKB was derived from the equation pKB = log {(slope-1)/[B]} ([Kenakin, 2009]).

[5] = biological target: T1, human kappa opioid receptor; assay: biochemical; type: biochemical; set-up: 13-mer linker peptide […]; expressed in transfected cells; enriched plasma membranes used
[6] = biological target: T1, human kappa opioid receptor; assay: BRET kappa-β-arrestin 2 interaction, SH-SY5Y whole cells; type: cell-based; set-up: 13-mer linker peptide […]; expressed in transfected cells; enriched plasma membranes used
kappa opioid receptor [7] = system: kappa opioid receptor; set-up: method as in Guerrini et al., 1998; settings: ref Guerrini et al., 1998; cited from earlier work
guinea pig ileum = system: guinea pig ileum; set-up: method as in Guerrini et al., 1998; settings: ref Guerrini et al., 1998; cited from earlier work
rabbit jejunum = system: rabbit jejunum; set-up: method as in Guerrini et al., 1998; settings: ref Guerrini et al., 1998; cited from earlier work

T1 sequence (P41145 whole entry): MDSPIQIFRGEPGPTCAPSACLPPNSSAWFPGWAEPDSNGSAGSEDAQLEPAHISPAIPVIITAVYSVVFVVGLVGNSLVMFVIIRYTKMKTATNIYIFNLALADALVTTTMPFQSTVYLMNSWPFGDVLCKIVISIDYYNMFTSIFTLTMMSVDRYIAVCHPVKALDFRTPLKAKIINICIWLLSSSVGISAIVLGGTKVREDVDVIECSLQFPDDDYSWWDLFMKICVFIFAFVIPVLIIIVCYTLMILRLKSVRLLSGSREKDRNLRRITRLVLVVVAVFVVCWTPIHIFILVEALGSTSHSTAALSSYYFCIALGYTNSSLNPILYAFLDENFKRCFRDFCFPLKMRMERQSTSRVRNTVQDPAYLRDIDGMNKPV

Structure (SMILES): Oc1ccc2c3c1O[C@H]1c4[nH]c5c(c4C[C@@]4(O)[C@@H](C2)N(CC2CC2)CC[C@]314)C[C@@]1(O)[C@H]2Cc3ccc(O)c4c3[C@@]1(CCN2CC1CC1)[C@H]5O4 [Nor-BNI, Nor-Binaltorphimine]
- Affinity (kappa opioid receptor [1]): approximately 1 nM
- Potency (kappa opioid receptor [2]): 0.1 nM
- Calcium Mobilization pEC50 (CL95%) ([3]; CHO cells, human kappa + Gαqi5): inactive
- Calcium Mobilization α (intrinsic activity: maximal effect divided by that of Dyn A) ([3]; CHO cells, human kappa + Gαqi5): inactive
- Stimulation of calcium flux (in words) ([3]; tested as agonist): completely inactive
- DMR pEC50 (CL95%) ([4]; CHO cells, human kappa): inactive
- DMR α ([4]; relative to Dyn A): inactive
- Effect on DMR baseline (in words) ([4]; tested as agonist): did not modify DMR baseline
- Emax ± sem ([5]; 5 min, fraction of Dyn A maximal effect): inactive
- pEC50 (CL95%) ([5]; 5 min after compound addition): inactive
- BRET β-Arrestin 2 pEC50 (CL95%) ([6]; SH-SY5Y cells, kappa-RLuc/β-arrestin 2-RGFP): inactive
- BRET β-Arrestin 2 α ([6]; relative to Dyn A): inactive

Structure (SMILES): CC[C@H](C)[C@H](NC(=O)[C@H](CCCNC(=N)N)NC(=O)[C@H](CCCNC(=N)N)NC(=O)[C@H](CC(C)C)NC(=O)[C@H](Cc1ccccc1)NC(=O)CNC(=O)[C@@H]1Cc2ccccc2CN1C(=O)[C@@H](N)Cc1c(C)cc(O)cc1C)C(=O)N[C@@H](CCCNC(=N)N)C(=O)N1CCC[C@H]1C(=O)N[C@@H](CCCCN)C(N)=O [[Dmt^1,Tic^2], [Dmt^1,Tic^2]Dyn(1-11)-NH2] (H-[Dmt][Tic]GFLRRIRPK-NH2; N-terminus assumed)
- Affinity at the mu opioid receptor relative to kappa (in words) (kappa opioid receptor [7]): equal affinity
- Affinity values (kappa opioid receptor [7]): 3.3—4.3 nM
- Higher affinity at the delta opioid receptor (kappa opioid receptor [7]): 10 fold
- Antagonist potency (guinea pig ileum): 90 nM
- Antagonist potency (rabbit jejunum): 8 nM
- Calcium Mobilization pA2 (CL95%) [3]: 6.6
- Calcium Mobilization pEC50 (CL95%) [3]: ∼6.9
- Calcium Mobilization α (intrinsic activity: maximal effect divided by that of Dyn A) [3]: 0.15
- Increase of calcium levels [3]: 50 % over the baseline
- Calcium Mobilization pA2 (CL95%) ([3]; cho cells): 6.6 (6.16–7.14)
- DMR pA2 (CL95%) [4]: 7.7
- DMR pEC50 (CL95%) [4]: 7.11 (5.61–8.61)
- DMR α [4]: 0.47
- Effect on DMR baseline (in words) [4]: slightly stimulated the DMR response only at micromolar concentrations
- DMR pA2 (CL95%) ([4]; cho cells): 7.7 (7.11–8.29)
- BRET G Protein pA2 (CL95%) [5]: 7.5
- BRET G Protein pEC50 (CL95%) [5]: 6.95 (6.14–7.75)
- BRET G Protein α [5]: 0.35
- Emax ± sem [5]: 0.30 ± 0.02 and 0.35 ± 0.06
- pEC50 (CL95%) [5]: 7.09
- BRET G Protein pA2 (CL95%) ([5]; sh-sy5y cell membranes): 7.5 (5.35–9.65)
- BRET β-Arrestin 2 pA2 (CL95%) [6]: 7.3
- BRET β-Arrestin 2 pEC50 (CL95%) [6]: inactive
- BRET β-Arrestin 2 α [6]: inactive
- Residual agonist activity (in words) [6]: did not show any residual agonist activity
- BRET β-Arrestin 2 pA2 (CL95%) ([6]; sh-sy5y cells): 7.3 (6.5–8.1)
